The values below come from PubChem BioAssay AID248 (DTP/NCI, 2004).

“And” between values parts separate entries of the source, which are not always exact repeats. Equal entries are not always repeated. Inconclusive results and toxic doses are left out.

The subject of the assay is L1210 leukemia ip in BDF1 mice, survival T/C. Put plainly: NCI In Vivo Anticancer Drug Screen. Data for tumor model L1210 Leukemia (intraperitoneal) in B6D2F1 (BDF1) mice. Particulars: endpoint: mean survival time, higher = longer survival. In a few lines:
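In this screen, tumor-bearing mice given compound are compared to those given vehicle, and their survival values are reported as a treated-to-control quotient.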

The mark [1] stands for this setting: dose: 100.0 mg/kg/injection, schedule: Q01DX009 (ip), vehicle: Klucel (hydroxypropylcellulose) (HPC).
The mark [2] stands for this setting: dose: 100.0 mg/kg/injection, schedule: Q04DX002 (ip), vehicle: Klucel (hydroxypropylcellulose) (HPC).
Setting [3] is: dose: 200.0 mg/kg/injection, schedule: Q01DX009 (ip), vehicle: Klucel (hydroxypropylcellulose) (HPC).
Setting [4] is: dose: 200.0 mg/kg/injection, schedule: Q04DX002 (ip), vehicle: Klucel (hydroxypropylcellulose) (HPC).
The mark [5] stands for this setting: dose: 400.0 mg/kg/injection, schedule: Q04DX002 (ip), vehicle: Klucel (hydroxypropylcellulose) (HPC).
[6] abbreviates: dose: 100.0 mg/kg/injection, schedule: Q04DX003 (ip), vehicle: saline with Tween-80.
[7] abbreviates: dose: 200.0 mg/kg/injection, schedule: Q04DX003 (ip), vehicle: saline with Tween-80.
Where [8] appears, read: dose: 50.0 mg/kg/injection, schedule: Q01DX009 (ip), vehicle: saline with Tween-80.
[9] abbreviates: dose: 100.0 mg/kg/injection, schedule: Q01DX009 (ip), vehicle: saline with Tween-80.
The mark [10] stands for this setting: dose: 200.0 mg/kg/injection, schedule: Q01DX009 (ip), vehicle: saline with Tween-80.
Where [11] appears, read: dose: 100.0 mg/kg/injection, schedule: Q04DX003 (ip), vehicle: Klucel (hydroxypropylcellulose) (HPC).
The mark [12] stands for this setting: dose: 200.0 mg/kg/injection, schedule: Q04DX003 (ip), vehicle: Klucel (hydroxypropylcellulose) (HPC).
Setting [13] is: dose: 400.0 mg/kg/injection, schedule: Q04DX003 (ip), vehicle: Klucel (hydroxypropylcellulose) (HPC).
[14] abbreviates: dose: 100.0 mg/kg/injection, schedule: Q01DX001 (ip), vehicle: saline with Tween-80.
Setting [15] is: dose: 100.0 mg/kg/injection, schedule: Q04DX002 (ip), vehicle: saline with Tween-80.
Setting [16] is: dose: 200.0 mg/kg/injection, schedule: Q01DX001 (ip), vehicle: saline with Tween-80.
[17] abbreviates: dose: 200.0 mg/kg/injection, schedule: Q04DX002 (ip), vehicle: saline with Tween-80.
Where [18] appears, read: dose: 400.0 mg/kg/injection, schedule: Q01DX001 (ip), vehicle: saline with Tween-80.
Where [19] appears, read: dose: 400.0 mg/kg/injection, schedule: Q01DX009 (ip), vehicle: saline with Tween-80.
[20] abbreviates: dose: 400.0 mg/kg/injection, schedule: Q04DX002 (ip), vehicle: saline with Tween-80.

Consider `CC(C)(C)OC(=O)C(N)CC(N)=O` (stereo not drawn), for which the T/C runs as follows: under setting [1], 106 % of control; under setting [2], 103 % of control; under setting [3], 106 % of control; under setting [4], 88 % of control; (dose: 400.0 mg/kg/injection, schedule: Q01DX009 (ip), vehicle: Klucel (hydroxypropylcellulose) (HPC)) 98 % of control; under setting [5], 98 % of control.

For `CC1CCCC(CN=Cc2cc(Cl)ccc2O)[N-]1.CC1CCCC(CN=Cc2cc(Cl)ccc2O)[N-]1.[Ni+2]` (stereo not drawn), the T/C by setting is: under setting [6], 96 % of control; under setting [7], 90 % of control; (dose: 400.0 mg/kg/injection, schedule: Q04DX003 (ip), vehicle: saline with Tween-80) 91 % of control.

With `Cc1ccc(CCCCCCCCCCCC(=O)O)cc1`, the T/C reads like this: under setting [8], 93 % of control; under setting [9], 97 % of control; under setting [10], 93 % of control.

For the molecule `CC(=O)Nc1ccc(C(=O)C[n+]2ccc3ccccc3c2)cc1`, the T/C is, setting by setting: under setting [11], 97 % of control; under setting [12], 92 % of control; under setting [13], 94 % of control.

Regarding `COc1ccc(OC)c(/C=N/NC(=O)CCCCCCCCC(=O)N/N=C/c2cc(OC)ccc2OC)c1`, the T/C is 90 % of control under setting [14]; 101 % of control and 106 % of control under setting [9]; 94 % of control and 108 % of control under setting [15]; 92 % of control (dose: 100.0 mg/kg/injection, schedule: Q04DX003 (ip), vehicle: saline); 92 % of control under setting [16]; 97 % of control and 90 % of control under setting [10]. For the same molecule, the T/C under setting [17] is 95 % of control and 90 % of control; the T/C (dose: 200.0 mg/kg/injection, schedule: Q04DX003 (ip), vehicle: saline) was 92 % of control; the T/C under setting [18] is 87 % of control; the T/C under setting [19] is 94 % of control; the T/C under setting [20] was 86 % of control; the T/C (dose: 400.0 mg/kg/injection, schedule: Q04DX003 (ip), vehicle: saline) was 87 % of control.

`O=C1C=C(Nc2ccc([N+](=O)[O-])cc2)C(=O)c2ccccc21`: the T/C by setting is: (dose: 75.0 mg/kg/injection, schedule: Q01DX001 (ip), vehicle: carboxymethylcellulose (CMC)) 87 % of control; (dose: 300.0 mg/kg/injection, schedule: Q01DX001 (ip), vehicle: carboxymethylcellulose (CMC)) 89 % of control.

Turning to `O=C(O)c1cscc1Cc1cccs1`, the T/C under setting [14] was 96 % of control, the T/C under setting [16] was 96 % of control and the T/C under setting [18] is 103 % of control.

As for `CSc1nc(C)c(Br)c(Nc2ccc(C(N)=O)cc2)n1`, the T/C (dose: 87.5 mg/kg/injection, schedule: Q01DX009 (ip), vehicle: Klucel (hydroxypropylcellulose) (HPC)) is 94 % of control; the T/C (dose: 175.0 mg/kg/injection, schedule: Q01DX009 (ip), vehicle: Klucel (hydroxypropylcellulose) (HPC)) is 91 % of control; the T/C (dose: 350.0 mg/kg/injection, schedule: Q01DX009 (ip), vehicle: Klucel (hydroxypropylcellulose) (HPC)) is 101 % of control.

As to `O=C(CNc1ccccc1)NCc1ccccc1`, the T/C by setting is: under setting [9], 92 % of control; under setting [10], 95 % of control; under setting [19], 97 % of control.

`COc1ccc(C23CCCC(=O)C2C2C(=O)CCCC23c2ccc(OC)cc2)cc1` (stereo not drawn): the T/C (dose: 100.0 mg/kg/injection, schedule: Q01DX001 (ip), vehicle: Klucel (hydroxypropylcellulose) (HPC)) is 100 % of control; the T/C under setting [11] was 100 % of control; the T/C (dose: 200.0 mg/kg/injection, schedule: Q01DX001 (ip), vehicle: Klucel (hydroxypropylcellulose) (HPC)) was 97 % of control; the T/C under setting [12] is 101 % of control; the T/C (dose: 400.0 mg/kg/injection, schedule: Q01DX001 (ip), vehicle: Klucel (hydroxypropylcellulose) (HPC)) is 100 % of control; the T/C under setting [13] is 95 % of control.

As for `Cc1ccc(NC(C(=O)c2ccccc2)c2ccccc2)cc1` (stereo not drawn), the T/C (dose: 300.0 mg/kg/injection, schedule: Q01DX Z (ip), vehicle: carboxymethylcellulose (CMC)) is 97 % of control; the T/C (dose: 450.0 mg/kg/injection, schedule: Q01DX Z (ip), vehicle: carboxymethylcellulose (CMC)) was 103 % of control; the T/C (dose: 675.0 mg/kg/injection, schedule: Q01DX Z (ip), vehicle: carboxymethylcellulose (CMC)) is 107 % of control.

`COC(=O)c1ccccc1NC(=O)Nc1cccc(C(F)(F)F)c1`: the T/C is 101 % of control under setting [2], 92 % of control under setting [4] and 105 % of control under setting [5].

Consider `COc1cccc(C(C)(C)COS(=O)(=O)c2ccc(C)cc2)c1`, for which the T/C was 90 % of control under setting [8] and 90 % of control under setting [9].

For `ClC1(Cl)OC(Cl)(Cl)C(Cl)(Cl)OC1(Cl)Cl`, the T/C is, setting by setting: (dose: 50.0 mg/kg/injection, schedule: Q01DX009 (ip), vehicle: Klucel (hydroxypropylcellulose) (HPC)) 98 % of control; under setting [1], 98 % of control; under setting [3], 102 % of control.

Regarding `C1CC[N-]CC1.Oc1ccccc1C=NCCN=Cc1ccccc1O.[CH3-].[Rh+2]`, the T/C was 109 % of control under setting [8]; 115 % of control under setting [9]; 106 % of control under setting [6]; 91 % of control under setting [10]; 117 % of control under setting [7].

For the molecule `COc1ccc(Cl)cc1NC(=O)COc1ccccc1`, the T/C by setting is: under setting [14], 89 % of control; under setting [9], 102 % of control; under setting [15], 97 % of control and 98 % of control; under setting [16], 92 % of control; under setting [10], 98 % of control and 102 % of control; under setting [17], 94 % of control and 97 % of control. Also, the T/C under setting [18] was 101 % of control; the T/C under setting [19] is 93 % of control and 102 % of control; the T/C under setting [20] is 94 % of control and 101 % of control.

Consider `CN=C(NCCCOC)c1ccc(NC(=O)c2ccc(C(=O)Nc3ccc(C(=NC)NCCCOC)cc3)cc2)cc1`, for which the T/C is 124 % of control (dose: 4.4 mg/kg/injection, schedule: Q01DX Z (ip), vehicle: carboxymethylcellulose (CMC)); 108 % of control (dose: 4.4 mg/kg/injection, schedule: Q01DX Z (ip), vehicle: saline); 108 % of control (dose: 6.6 mg/kg/injection, schedule: Q01DX Z (ip), vehicle: saline); 156 % of control (dose: 10.0 mg/kg/injection, schedule: Q01DX Z (ip), vehicle: carboxymethylcellulose (CMC)); 179 % of control (dose: 15.0 mg/kg/injection, schedule: Q01DX Z (ip), vehicle: carboxymethylcellulose (CMC)); 155 % of control and 172 % of control (dose: 15.0 mg/kg/injection, schedule: Q01DX Z (ip), vehicle: saline). In addition, the T/C by setting is: (dose: 30.0 mg/kg/injection, schedule: Q01DX Z (oral), vehicle: saline) 101 % of control; (dose: 60.0 mg/kg/injection, schedule: Q01DX Z (oral), vehicle: saline) 91 % of control; (dose: 120.0 mg/kg/injection, schedule: Q01DX Z (oral), vehicle: saline) 93 % of control; (dose: 240.0 mg/kg/injection, schedule: Q01DX Z (oral), vehicle: saline) 87 % of control; (dose: 480.0 mg/kg/injection, schedule: Q01DX Z (oral), vehicle: saline) 91 % of control.

Turning to `CCN=C(CCl)NS(=O)(=O)c1ccc(C)cc1`, the T/C reads like this: (dose: 25.0 mg/kg/injection, schedule: Q04DX002 (ip), vehicle: saline with Tween-80) 113 % of control; (dose: 50.0 mg/kg/injection, schedule: Q04DX002 (ip), vehicle: saline with Tween-80) 109 % of control; under setting [15], 109 % of control.
